Reference: EP2119770B1, “Production of alpha-oxyfunctionalized carbonyl compounds” (priority 2008, dated 2009)

Tests used:
Assay type in all cases: biochemical
[1] = molecular target: Gox0644 (Gluconobacter oxydans, UniProt Q5FT75); experiment: Enzyme activity assay (rate of NAD(P)H decrease at 340 nm), Gox0644; conditions: 10 mM substrate; for Specific Activity: Tab. 4, Gox0644, cofactor NADPH, pH 7.0, 30 °C; for Activity: Table 3, Gox0644, K-phosphate buffer pH 7.0, 0.05 mM NAD(P)H, 30 °C
Method: (§1) Reactions were induced by addition of enzyme or substrate. One unit of enzyme activity was defined as the amount of enzyme catalyzing the conversion of 1 µmol of pyridine nucleotide per min at 30 °C.
as §1
For each enzyme (Gox0313, Gox0502, Gox0644, Gox0646, Gox1615, Gox2107, and Gox2684 respectively), fresh enzyme preparations were used to validate the substrate spectrum and the kinetic activity. […] Reactions were induced by addition of enzyme or substrate. One unit of enzyme activity was defined as the amount of enzyme catalyzing the conversion of 1 µmol of pyridine nucleotide per min at 30 °C. […] Table 3: Summary of enzymatic activities with α-diketones, α-ketoaldehydes and /or α-ketoesters

[2] = molecular target: T1, Gox0313 (Gluconobacter oxydans, UniProt Q5FU50); experiment: Enzyme activity assay (rate of NAD(P)H decrease at 340 nm), Gox0313; conditions: 10 mM substrate; for Specific Activity: Tab. 6, Gox0313, substrate reduction, cofactor NADH, pH 7.0, 30 °C; for Activity: Table 3, Gox0313, K-phosphate buffer pH 7.0, 0.05 mM NAD(P)H, 30 °C
T1 sequence (Q5FU50 1-343): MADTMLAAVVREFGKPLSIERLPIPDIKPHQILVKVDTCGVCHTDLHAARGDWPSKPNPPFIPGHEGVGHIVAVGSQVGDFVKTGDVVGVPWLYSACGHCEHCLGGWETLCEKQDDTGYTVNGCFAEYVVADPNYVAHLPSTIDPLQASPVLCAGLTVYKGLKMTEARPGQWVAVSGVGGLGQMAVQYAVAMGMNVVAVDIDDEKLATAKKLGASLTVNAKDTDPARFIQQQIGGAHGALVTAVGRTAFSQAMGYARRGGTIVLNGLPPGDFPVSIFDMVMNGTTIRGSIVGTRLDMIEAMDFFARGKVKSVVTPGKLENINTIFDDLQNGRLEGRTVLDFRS
Outline: (§2)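 Purified enzymes assayed at 30 °C in 40 mM potassium phosphate pH 7.0 with 10 mM substrate and NAD(P)H (0.025 mM, or 0.05 mM in the standard mixture), started by adding enzyme or substrate. Activity followed as the rate of NAD(P)H decrease at 340 nm; one unit = 1 µmol pyridine nucleotide converted per min; protein measured by Bradford.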

[3] = molecular target: T2, Gox0646 (Gluconobacter oxydans, UniProt Q5FT73); experiment: Enzyme activity assay (rate of NAD(P)H decrease at 340 nm), Gox0646; conditions: 10 mM substrate; for Specific Activities: Tab. 9, GOX0646, cofactor NADPH, pH 7.0, 30 °C; for Activity: Table 3, Gox0646, K-phosphate buffer pH 7.0, 0.05 mM NAD(P)H, 30 °C
T2 sequence (Q5FT73 1-264): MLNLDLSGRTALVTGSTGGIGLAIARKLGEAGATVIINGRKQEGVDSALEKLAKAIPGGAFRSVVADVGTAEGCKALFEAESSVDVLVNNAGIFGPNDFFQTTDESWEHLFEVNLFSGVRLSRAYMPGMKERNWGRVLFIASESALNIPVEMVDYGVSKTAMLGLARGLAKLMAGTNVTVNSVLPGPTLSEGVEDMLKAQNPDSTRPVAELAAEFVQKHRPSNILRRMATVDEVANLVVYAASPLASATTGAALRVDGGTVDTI
Method: Measurment of enzyme activity: NADPH-dependent alpha-ketocarbonyl reductases were assayed by a routine method used for NAD(P)-linked enzymes by recording the rate of decrease of NADPH at 340 nm (ε = 6.22 mM^-1 x cm^-1)) with substrates at 30 °C. The reaction mixture (1 ml) for reduction of alpha-ketocarbonyl substrates contained 10 mM substrate, 40 mM potassium phosphate buffer pH 7.0, 0.025 mM NAD(P)H , and the enzyme. Reactions were induced by addition of enzyme or substrate. One unit of enzyme activity was defined as the amount of enzyme catalyzing the conversion of 1 µmol of pyridine nucleotide per min at 30 °C.
NADPH-dependent α-ketocarbonyl reductases were assayed by a routine method used for NAD(P)-linked enzymes by recording the rate of decrease of NADPH at 340 nm (ε = 6.22 mM^-1.cm^-1) with substrates at 30 °C. The reaction mixture (1 ml) for reduction of alpha-ketocarbonyl substrates contained 10 mM substrate, 40 mM potassium phosphate buffer pH 7.0, 0.025 mM NADPH , and the enzyme. Reactions were induced by addition of enzyme or substrate. One unit of enzyme activity was defined as the amount of enzyme catalyzing the conversion of 1 µmol of pyridine nucleotide per min at 30 °C.
For each enzyme (Gox0313, Gox0502, Gox0644, Gox0646, Gox1615, Gox2107, and Gox2684 respectively), fresh enzyme preparations were used to validate the substrate spectrum and the kinetic activity. […] Purified NAD(P)-dependent oxidoreductases were assayed at 30 °C by a routine method used for NAD(P)-linked enzymes by recording the rate of decrease of NAD(P)H at 340 nm (ε = […]) with substrates capable of reduction reactions. The standard reaction mixture (1 ml) for the reduction reactions of substrates contained 10 mM substrate, 40 mM potassium phosphate buffer (K-phosphate buffer) pH 7.0, 0.05 mM NAD(P)H, and the enzyme unless otherwise noted. Reactions were induced by addition of enzyme or substrate. One unit of enzyme activity was defined as the amount of enzyme catalyzing the conversion of 1 µmol of pyridine nucleotide per min at 30 °C. Measurement of the protein content was performed by the method of Bradford in Anal. Biochem. 72:248-254 (1976). Table 3: Summary of enzymatic activities with α-diketones, α-ketoaldehydes and /or α-ketoesters

[4] = molecular target: T3, Gox0502 (Gluconobacter oxydans, UniProt Q5FTL6); experiment: Enzyme activity assay (rate of NAD(P)H decrease at 340 nm), Gox0502; parameters: Strep-tag II (N); made in house; host or cells: E. coli BL21 or E. coli DH5α (pASK-IBA5); conditions: 10 mM substrate; for Specific Activity: Tab. 7, Gox0502, cofactor NADPH, pH 7.0, 30 °C; for Activity: Table 3, Gox0502, K-phosphate buffer pH 7.0, 0.05 mM NAD(P)H, 30 °C
T3 sequence (Q5FTL6 1-361): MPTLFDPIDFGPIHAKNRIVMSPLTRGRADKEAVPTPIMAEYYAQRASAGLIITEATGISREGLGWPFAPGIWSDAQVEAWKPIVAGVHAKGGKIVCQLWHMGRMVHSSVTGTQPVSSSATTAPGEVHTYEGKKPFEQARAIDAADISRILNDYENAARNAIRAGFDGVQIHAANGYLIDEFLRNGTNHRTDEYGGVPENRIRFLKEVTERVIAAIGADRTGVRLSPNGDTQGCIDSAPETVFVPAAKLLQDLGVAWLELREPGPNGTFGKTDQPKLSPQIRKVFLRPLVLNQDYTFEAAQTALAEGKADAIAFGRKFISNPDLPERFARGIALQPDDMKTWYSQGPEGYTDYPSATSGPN
Outline: as §2

[5] = molecular target: Gox2107 (Gluconobacter oxydans, UniProt Q5FP53); experiment: Enzyme activity assay (rate of NAD(P)H decrease at 340 nm), Gox2107; conditions: 10 mM substrate; for Specific Activity: Tab. 7, Gox2107, cofactor NADPH, pH 7.0, 30 °C
Outline: as §2

Row | Compound | Specific Activity [1] [U/mg] | Activity [1] [U/mg] | Specific Activity [2] [U/mg] | Activity [2] [U/mg] | Specific Activities [3] [U/mg] | Activity [3] [U/mg] | Specific Activity [4] | Activity [4] [U/mg] | Specific Activity [5] [U/mg] | Activity ([5]; Table 3, Gox2107, K-phosphate buffer pH 7.0, 0.05 mM NAD(P)H, 30 °C) [U/mg]
1 | CCC(=O)C(C)=O [2,3-pentanedione] | 89.3 | 89.3 | 35.9 | 35.9 | 8.0 | 8.0 | – | – | – | –
2 | O=CC(=O)c1ccccc1 [phenylglyoxal] | 66.0 | 66.0 | 0.5 | 0.5 | – | – | 15.7 U/mg | 15.7 | 35.2 | 35.2
3 | CCC(=O)C(=O)CC [3,4-hexanedione] | 7.3 | 7.3 | 19.5 | 19.5 | 2.0 | 2.0 | 2,0 U/mg | 2.0 | < 0.1 | –
4 | CCCC(=O)C(C)=O [2,3-hexanedione] | 50.1 | 50.1 | 19.6 | 19.6 | 8.0 | 8.0 | 1.0 U/mg | – | < 0.1 | –
5 | CC(=O)C=O [methylglyoxal] | 3.4 | 3.4 | 10.6 | 10.6 | 0.2 | 0.2 | 1.5 U/mg | – | < 0.1 | –
